Laboratory results published in patent US11051515B2, “3-acyl-benzamides and their use as herbicides” (Bayer Aktiengesellschaft, priority 2017, dated 2021).

What was measured:
ALOMY [1] = test: Pre-emergence action against ALOMY; type: in vivo, Alopecurus myosuroides; conditions: Alopecurus myosuroides, 504 h; dosage 320 g/ha; pre-emergence; scored visually after 3 weeks vs untreated controls; 100% = plants have died, 0% = like control plants; read-out: Pre-emergence action against ALOMY (herbicidal activity in percent)
Summary of the method: (§1)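 Seeds sown in sandy loam in wood-fiber pots and covered with soil. Greenhouse growth; visual damage scored after 3 weeks versus untreated controls (100% = dead, 0% = like control).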

AVEFA [2] = test: Pre-emergence action against AVEFA; type: in vivo, Avena fatua; conditions: Avena fatua, 504 h, dosage 320 g/ha, scored visually after 3 weeks vs untreated controls, read-out: Pre-emergence action against AVEFA (herbicidal activity)
Summary of the method: as §1

CYPES [3] = test: Pre-emergence action against CYPES; type: in vivo, Cyperus esculentus; conditions: Cyperus esculentus, 504 h; pre-emergence, dosage 320 g/ha, scored visually after 3 weeks vs untreated controls; read-out: Pre-emergence action against CYPES (herbicidal activity)
Summary of the method: as §1

ECHCG [4] = test: Pre-emergence action against ECHCG; type: in vivo, Echinochloa crus-galli; conditions: Echinochloa crus-galli, 504 h; pre-emergence, dosage 320 g/ha, scored visually after 3 weeks vs untreated controls; read-out: Pre-emergence action against ECHCG (herbicidal activity)
Summary of the method: as §1

SETVI [5] = test: Pre-emergence action against SETVI; type: in vivo, Setaria viridis; conditions: Setaria viridis, 504 h; pre-emergence, dosage 320 g/ha, scored visually after 3 weeks vs untreated controls; read-out: SETVI (Table B8, pre-emergence herbicidal activity)
Summary of the method: as §1

ABUTH [6] = test: Pre-emergence action against ABUTH; type: in vivo, Abutilon theophrasti; conditions: Abutilon theophrasti, 504 h; pre-emergence, dosage 320 g/ha, scored visually after 3 weeks vs untreated controls; read-out: Pre-emergence action against ABUTH (herbicidal activity)
Summary of the method: as §1

AMARE [7] = test: Pre-emergence action against AMARE; type: in vivo, Amaranthus retroflexus; conditions: Amaranthus retroflexus, 504 h; pre-emergence, dosage 320 g/ha, scored visually after 3 weeks vs untreated controls; read-out: Pre-emergence action against AMARE (herbicidal activity)
Summary of the method: as §1

MATIN [8] = test: Pre-emergence action against MATIN; type: in vivo, Matricaria inodora; conditions: Tripleurospermum inodorum, 504 h; Dosage 320 g/ha, pre-emergence
Summary of the method: as §1

PHBPU [9] = test: Pre-emergence action against PHBPU; type: in vivo, Pharbitis purpurea; conditions: Ipomoea purpurea, 504 h; Dosage 320 g/ha, pre-emergence
Summary of the method: as §1

VIOTR [10] = test: Pre-emergence action against VIOTR; type: in vivo, Viola tricolor; conditions: Viola tricolor, 504 h; Dosage 320 g/ha, pre-emergence
Summary of the method: as §1

ALOMY [11] = test: Post-emergence action against ALOMY; type: in vivo, Alopecurus myosuroides; conditions: Alopecurus myosuroides, 504 h; Dosage 80 g/ha, post-emergence
Summary of the method: (§2)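 Post-emergence foliar spray on greenhouse plants at the one-leaf stage, using wettable-powder or emulsion-concentrate formulations in water (600 to […], plus 0.2% wetting agent). Damage scored by eye roughly 3 weeks later against untreated plants: 0% = like control, 100% = dead.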

AVEFA [12] = test: Post-emergence action against AVEFA; type: in vivo, Avena fatua; conditions: Avena fatua, 504 h; post-emergence, dosage 80 g/ha, visual assessment about 3 weeks after treatment vs untreated controls; read-out: Post-emergence action against AVEFA (herbicidal action in percent)
Summary of the method: as §2

CYPES [13] = test: Post-emergence action against CYPES; type: in vivo, Cyperus esculentus; conditions: Cyperus esculentus, 504 h; post-emergence, dosage 80 g/ha, visual assessment about 3 weeks after treatment vs untreated controls; read-out: Post-emergence action against CYPES (herbicidal action in percent)
Summary of the method: as §2

ECHCG [14] = test: Post-emergence action against ECHCG; type: in vivo, Echinochloa crus-galli; conditions: Echinochloa crus-galli, 504 h; post-emergence, dosage 80 g/ha, visual assessment about 3 weeks after treatment vs untreated controls; read-out: Post-emergence action against ECHCG (herbicidal action in percent)
Summary of the method: as §2

LOLMU [15] = test: Post-emergence action against LOLMU; type: in vivo, Lolium multiflorum; conditions: Lolium multiflorum, 504 h, dosage 80 g/ha, visual assessment about 3 weeks after treatment vs untreated controls, read-out: Post-emergence action against LOLMU (herbicidal action in percent)
Method: Seeds of monocotyledonous and dicotyledonous weed and crop plants are laid out in sandy loam soil in wood-fiber pots, covered with soil and cultivated in a greenhouse under good growth conditions. 2 to 3 weeks after sowing, the test plants are treated at the one-leaf stage. The compounds of the invention, formulated in the form of wettable powders (WP) or as emulsion concentrates (EC), are then sprayed onto the green parts of the plants in the form of an aqueous suspension or emulsion at a water application rate equating to […], with addition of 0.2% wetting agent. After the test plants have been left to stand in the greenhouse under optimal growth conditions for about 3 weeks, the action of the preparations is assessed visually in comparison to untreated controls (herbicidal action in percent (%): 100% activity=the plants have died, 0% activity=like control plants). […] At the same time, inventive compounds leave Gramineae crops such as barley, wheat, rye, millet/Sorghum, corn or rice virtually undamaged when applied post-emergence, even at high active ingredient dosages. In addition, some substances are also harmless to dicotyledonous crops such as soya, cotton, oilseed rape, sugar beet or potatoes. Some of the compounds according to the invention have high selectivity and are therefore suitable for controlling unwanted vegetation in agricultural crops by the post-emergence method. The data of Tables B18 to B34 below illustrate, in an exemplary manner, the […] herbicidal action of the compounds according to the invention, the herbicidal activity being stated in percent.

SETVI [16] = test: Post-emergence action against SETVI; type: in vivo, Setaria viridis; conditions: Setaria viridis, 504 h; post-emergence, dosage 80 g/ha, visual assessment about 3 weeks after treatment vs untreated controls; read-out: Post-emergence action against SETVI (herbicidal action in percent)
Summary of the method: as §2

ABUTH [17] = test: Post-emergence action against ABUTH; type: in vivo, Abutilon theophrasti; conditions: Abutilon theophrasti, 504 h; post-emergence, dosage 80 g/ha, visual assessment about 3 weeks after treatment vs untreated controls; read-out: Post-emergence action against ABUTH (herbicidal action in percent)
Summary of the method: as §2

AMARE [18] = test: Post-emergence action against AMARE; type: in vivo, Amaranthus retroflexus; conditions: Amaranthus retroflexus, 504 h; post-emergence, dosage 80 g/ha, visual assessment about 3 weeks after treatment vs untreated controls; read-out: Post-emergence action against AMARE (herbicidal action in percent)
Summary of the method: as §2

MATIN [19] = test: Post-emergence action against MATIN; type: in vivo, Matricaria inodora; conditions: Tripleurospermum inodorum, 504 h; post-emergence, dosage 80 g/ha, visual assessment about 3 weeks after treatment vs untreated controls; read-out: Post-emergence action against MATIN (herbicidal action in percent)
Summary of the method: as §2

PHBPU [20] = test: Post-emergence action against PHBPU; type: in vivo, Pharbitis purpurea; conditions: Ipomoea purpurea, 504 h; post-emergence, dosage 80 g/ha
Summary of the method: as §2

STEME [21] = test: Post-emergence action against STEME; type: in vivo, Stellaria media; conditions: Stellaria media, 504 h; post-emergence, dosage 80 g/ha
Summary of the method: as §2

VIOTR [22] = test: Post-emergence action against VIOTR; type: in vivo, Viola tricolor; conditions: Viola tricolor, 504 h; post-emergence, dosage 80 g/ha
Summary of the method: as §2

VERPE [23] = test: Post-emergence action against VERPE; type: in vivo, Veronica persica; conditions: Veronica persica, 504 h, dosage 80 g/ha
Summary of the method: as §2

LOLMU [24] = test: Pre-emergence action against LOLMU; type: in vivo, Lolium multiflorum; conditions: Lolium multiflorum, 504 h, dosage 320 g/ha, scored visually after 3 weeks vs untreated controls, read-out: Pre-emergence action against LOLMU (herbicidal activity)
Summary of the method: as §1

POLCO [25] = test: Pre-emergence action against POLCO; type: in vivo, Polygonum convolvulus; conditions: Fallopia convolvulus, 504 h; Dosage 320 g/ha, pre-emergence
Summary of the method: as §1

STEME [26] = test: Pre-emergence action against STEME; type: in vivo, Stellaria media; conditions: Stellaria media, 504 h; Dosage 320 g/ha, pre-emergence
Summary of the method: as §1

VERPE [27] = test: Pre-emergence action against VERPE; type: in vivo, Veronica persica; conditions: Veronica persica, 504 h; Dosage 320 g/ha, pre-emergence
Summary of the method: as §1

POLCO [28] = test: Post-emergence action against POLCO; type: in vivo, Polygonum convolvulus; conditions: Fallopia convolvulus, 504 h; post-emergence, dosage 80 g/ha
Summary of the method: as §2

Compound | pest or weed control at 320 g/ha (ALOMY [1]) [%] | pest or weed control at 320 g/ha (AVEFA [2]) [%] | pest or weed control at 320 g/ha (CYPES [3]) [%] | pest or weed control at 320 g/ha (ECHCG [4]) [%] | pest or weed control at 320 g/ha (SETVI [5]) [%] | pest or weed control at 320 g/ha (ABUTH [6]) [%] | pest or weed control at 320 g/ha (AMARE [7]) [%] | pest or weed control at 320 g/ha (MATIN [8]) [%] | pest or weed control at 320 g/ha (VIOTR [10]) [%] | pest or weed control at 80 g/ha (AVEFA [12]) [%] | pest or weed control at 80 g/ha (CYPES [13]) [%] | pest or weed control at 80 g/ha (ECHCG [14]) [%] | pest or weed control at 80 g/ha (LOLMU [15]) [%] | pest or weed control at 80 g/ha (SETVI [16]) [%] | pest or weed control at 80 g/ha (ABUTH [17]) [%] | pest or weed control at 80 g/ha (MATIN [19]) [%] | pest or weed control at 80 g/ha (PHBPU [20]) [%] | pest or weed control at 80 g/ha (STEME [21]) [%] | pest or weed control at 80 g/ha (VIOTR [22]) [%] | pest or weed control at 80 g/ha (VERPE [23]) [%] | further results
Cc1c(C(=O)Nc2nnnn2C)ccc(C(F)(F)F)c1C(=O)C1CC1 [1-18, 3-(cyclopropylcarbonyl)-2-methyl-N-(1-methyl-1H-tetrazol-5-yl)-4-(trifluoromethyl)benzamide] | 100 | 100 | 90 | 100 | 100 | 100 | 100 | 100 | 100 | 100 | 90 | 90 | 90 | 100 | 80 | 100 | 100 | 100 | 100 | 100 | pest or weed control at 320 g/ha (PHBPU [9]): 90%; pest or weed control at 80 g/ha (ALOMY [11]): 100%; pest or weed control at 80 g/ha (AMARE [18]): 90%
CC(=O)c1c(C(F)(F)F)ccc(C(=O)Nc2nnnn2C)c1Br [1-195] | 90 | 100 | 100 | 100 | 100 | 100 | 100 | 100 | 100 | 80 | 80 | 90 | 90 | 90 | 80 | 90 | 90 | 100 | 100 | 80 | pest or weed control at 320 g/ha (LOLMU [24]): 90%; pest or weed control at 320 g/ha (POLCO [25]): 80%; pest or weed control at 320 g/ha (STEME [26]): 90%; pest or weed control at 320 g/ha (VERPE [27]): 100%; pest or weed control at 80 g/ha (POLCO [28]): 90%
